US20230075822A1, “USE OF CASTALAGIN OR ANALOGS THEREOF FOR ANTI-CANCER EFFICACY AND TO INCREASE THE RESPONSE TO IMMUNE CHECKPOINT INHIBITORS” (THE ROYAL INSTITUTION FOR THE ADVANCEMENT OF …, priority 2020, published 2023)

Tests used:
[1] = system: gut microbiota; test: 16S rRNA gene sequencing of mouse feces (microbiome profiling); type: in vivo, mice
Description: Genomic DNA extraction from mouse feces. Total genomic DNA from fecal pellets was extracted using ZymoBIOMICS DNA Miniprep Kit (Zymo Research Corporation) and immediately stored at -80° C. This protocol involves a bead beating step to ensure full recovery of bacterial DNA. DNA concentration and quality were measured using the Nanodrop ND-1000 (ThermoFisher).
16S rRNA gene sequence processing and analysis mouse feces samples. Isolated DNA was analyzed using 16S ribosomal RNA (rRNA) gene sequence to investigate the microbial composition in fecal samples. The V3—V4 region of the 16S rDNA gene was amplified by PCR using primers Bakt_341F (5′-CCTACGGGNGGCWGCAG-3′, SEQ ID NO:5) and Bakt_805R (5′-[…]-3′, SEQ ID NO:6) adapted to incorporate the transposon-based Illumina Nextera adapters (Illumina) and a sample barcode sequence allowing multiplexed paired-end sequencing. PCR mixtures contained 1× Q5 buffer (NEB), 1× Q5 Enhancer (NEB), 200 μM dNTP (VWR International), 0.2 μM of forward and reverse primer (Integrated DNA Technologies), 1 unit of Q5 (NEB) and 1 μl of template DNA in a 50 μl reaction. The PCR cycling conditions consisted of an initial denaturation of 30 sec at 98° C., followed by a first set of 15 cycles (98° C. for 10 sec, 55° C. for 30 sec and 72° C. for 30 sec), then by a second step of 15 cycles (98° C. for 10 sec, 65° C. for 30 sec and 72° C. for 30 sec) and final elongation of 2 min at 72° C. before cooling to 4° C. indefinitely. PCR products were purified using 35 pl of magnetic beads (AxyPrep Mag PCR Clean up kit; Axygen Biosciences) per 50 μl PCR reaction. Amplifications were controlled on a Bioanalyzer 2100 using DNA 7500 chips (Agilent Technologies). Samples were pooled at an equimolar ratio; the pool was repurified as described before and checked for quality on a Bioanalyzer 2100 using a DNA high sensitivity chip. The pool was quantified using picogreen (Life Technologies) and loaded on a MiSeq system (Illumina). High-throughput sequencing was performed at the IBIS (Institut de Biologie Integrative et des Systèmes—Université Laval).
Gene sequence processing and analysis was performed using R v4.0.0. DADA2R package v1.16.0 (Callahan et al., Nat Methods. 2016 July; 13(7):581-3) was used to generate exact amplicon sequence variants (ASV) of each sample from raw amplicon sequences. Sequences were corrected for Illumina amplicon sequence errors, de-replicated, chimera removed, and merged of paired-end reads with 260-bases for forward reads and 190-bases for reverse reads. The taxonomy assignment was performed against the SILVA reference database v138 (Quast et al., Nucleic Acids Res. 2013 January; 41(Database issue):D590-6). Archea and Eukaryota residual sequences were removed. Downstream analyses were performed at the genus-level through phyloseq R package v1.32.0 (McMurdie et al., PLoS One. 2013 Apr 22;8(4):e61217). The alpha-diversity was estimated with the Shannon diversity index and the Inverse Simpson index. These indexes were compared between groups using Mann-Whitney tests.
Statistical analysis. Statistical analysis was performed using R v4.0.0. The Mann-Whitney U test was used to determine significant differences among the different groups using alpha-diversity which show the diversity in each individual sample measures. DESeq2 (Love et al., Genome Biol. 2014;15(12):550) was used to perform differential abundances analysis at the genus-level. […]

[2] = system: CD8^+/Foxp3^+CD4^+ T cells; test: Immunofluorescence staining (CD4, CD8, Foxp3) of MCA-205 tumors; type: in vivo, C57BL/6 mice; conditions: castalagin/IsoPD-1 relative to Water/IsoPD-1
Text: FIG. 10B Representative images for the CD4, CD8 and Foxp3 immunofluorescence staining of tumors in both water/ISoPD-1 and castalagin/IsoPD-1 groups. FIG. 10C Box plot for the ratio CD8^+/Foxp3^+CD4^+ in tumor in (n=8/group) obtained with immunofluorescence staining. *p<0.05. Immunofluorescence staining. Murine tumors preserved in optimal cutting temperature (OCT) compound were cut (5 μm-thick sections) and adhered to microscope slides and stored at −80C°. Upon the start of the experiment, slides were air dried and washed with cold acetone. To prevent non-specific binding to biotin, the Endogenous Avidin Biotin Blocking kit (ThermoFisher) was used. Additionally, tissues were incubated with 10% donkey serum in order to reduce background staining. Primary antibodies used are anti-CD4, anti-CD8, anti-Foxp3. Donkey anti-goat and donkey anti-rat conjugated to AF-488 were used as secondary antibodies and slides were incubated with Cy3-Streptavidin to detect biotinylated antibodies. Nuclei were visualized by counterstaining with DAPI (ThermoFisher). Images were generated using the whole slide scanner Olympus BX61VS (20× 0.75NA objective with a resolution of […]). The images were analysed using Visiomorph software (Visiopharm).

O=C1OC[C@H]2OC(=O)c3cc(O)c(O)c(O)c3-c3c(O)c(O)c(O)c4c3C(=O)O[C@H]([C@H]3OC(=O)c5c-4c(O)c(O)c(O)c5[C@@H]3O)[C@@H]2OC(=O)c2cc(O)c(O)c(O)c2-c2c1cc(O)c(O)c2O [castalagin, Castalagin]
beta-diversity (Bray-Curtis) ([1]; MCA-205 model, SPF mice, castalagin or water gavage): significant clusters formation observed with beta-diversity
differential abundance, taxa enriched ([1]; MCA-205 model, SPF mice, castalagin/IsoPD-1 vs water/IsoPD-1): enrichment of Akkermensia, Ruminococcaceae UBA1819, Ruminococcus, Staphylococcus, Escherichia/shigella, Blautia and Alistipes
alpha-diversity (observed genus) ([1]; MCA-205 model, SPF mice, castalagin/isoPD-1, post-castalagin vs baseline): increased alpha-diversity
relative abundance, genera increased ([1]; NR FMT experiment, castalagin groups relative to water groups): increase of the relative abundance after 16s sequencing analysis of Ruminococcus, Alistepes, Christensenellaceae R7 group, Paraprevotella
relative abundance of Lachnoclostridium ([1]; NR FMT experiment, castalagin vs water groups): no difference of Lachnoclostridium was observed
ratio CD8^+/Foxp3^+ CD4^+ in tumor (immunofluorescence) [2]: increase of the ratio CD8^+/Foxp3^+ CD4^+
